From PMC4741438, “Targeting the SIN3A-PF1 interaction inhibits epithelial to mesenchymal transition and maintenance of a stem cell phenotype in triple negative breast cancer” (Oncotarget, 2015)
Peptide text beside a SMILES is read from it.

What was measured:
PAH2 domain of SIN3A = biological target: T1, PAH2 domain of SIN3A (Mus musculus, UniProt Q60520); assay: Fluorescence anisotropy competition assay, FITC-labeled Mad1 peptide probe; conditions: 70 nM PAH2 domain, 10 nM probe, PBS pH 7.4, 0.01% BSA, 1 h, 25°C; read-out: IC50, competition for binding to FITC-labeled MAD probe
T1 construct: The PAH2 domain of mSin3A was overexpressed in the E. coli BL21 (DE3) codon plus RIL strain; His tag (inferred from Ni2+ chelating column); made in house; host or cells: E. coli BL21 (DE3) codon plus RIL
T1 sequence (Q60520 300-383 limits assumed): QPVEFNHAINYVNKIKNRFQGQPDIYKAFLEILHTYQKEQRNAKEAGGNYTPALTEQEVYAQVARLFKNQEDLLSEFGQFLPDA
Procedure: The PAH2 domain of mSin3A was overexpressed in the E. coli BL21 (DE3) codon plus RIL strain (Stratagene) by addition of 1 mM isopropyl-1-thio-D-galactopyranoside and incubation overnight at 15°C. Harvested cells were re-suspended in 50 mM sodium phosphate buffer, pH 7.4, supplemented with 500 mM sodium chloride, 5% glycerol, and 0.1% Igepal CA-630 and lysed using a microfluidizer (Micro-fluidics) at 20,000 psi. After clarification of the crude extract by high-speed centrifugation, the lysate was loaded onto a 5 ml HiTrap chelating column (GE Healthcare) charged with Ni2+. The column was washed and the protein was eluted with 30 mM HEPES pH 7.4, 250 mM sodium chloride, and 250 mM imidazole. The protein was next purified on a Superdex75 column (GE Healthcare) equilibrated with 20 mM Tris-HCl buffer, pH 8.0, and 150 mM sodium chloride. Fractions containing the pure protein were combined and concentrated with 3 kDa MWCO centrifugal filters (Amicon).
The binding affinity of pSID for SIN3A was assessed in a fluorescence anisotropy competition assay using a fluorescein isothiocyanate-labeled Mad1 peptide as an assay probe. […] Measurements were obtained after a 1 h incubation of the fluorescent ligand and the protein at 25°C with a Safire 2 microplate reader (Tecan). […]

[1] = tested on: H3K4me3 at the CDH1 and ESR1 promoters; design: method as in PMID 20547842; conditions: SID peptide, longer time period; cited from earlier work
MDA-MB-231 cells [2] = assay: 3D culture colony morphogenesis of MDA-MB-231; type: cell-based, human; conditions: 3D matrigel, 10 days
Procedure: MDA-MB-231 cells were cultured on 8 chambered wells (BD Biosciences) and fixed with 4% paraformaldehyde/PBS for 15 min at room temperature. For 3D cultures cells were seeded (3 × 10^3/well) in quadruplicate onto Matrigel (BD Biosciences) or Cultrex basement membrane extracts (Trevigen) in 8-well culture slides to prepare three-dimensional cultures as described earlier. […] Colony morphology was determined by phase-contrast microscopy. For immunostaining, cells were permeabilized with 0.5% Triton X-100/PBS and blocked with 10% normal goat serum (Invitrogen) in PBS for 1 h. Primary antibodies were incubated overnight at 4°C in blocking buffer and washed 3 times with washing buffer (0.05% Triton X-100/PBS) and once with PBS. Secondary antibodies (dilution 1:200 in 1% normal goat serum/PBS) were added for 1 h and then washed. The samples were then mounted with ProLong Gold antifade reagent with DAPI (Molecular Probes/Invitrogen, CA), following the manufacturer instructions. All incubations and washes were done at 4 or 25°C as required. Confocal microscopy was performed using a Leica SP5 confocal microscope at the Shared Instrumentation facility of department of Hematology at Mount Sinai School of Medicine, NY.

4T1 cells = assay: Lung metastasis of 4T1 cells in Balb/c mice; type: in vivo, mouse
Procedure: 4T1 cells were treated for 14 days with water, Tat-Scr (2.5 μM) or Tat-SID (1 & 2.5 μM) and then inoculated orthotopically in the inguinal mammary gland of Balb/c mice (n = 5). […] Tumor volumes were calculated as ellipsoids (Dxd^2/2) by measuring the main diameter (D) and the smaller diameter (d) and plotted versus time (days). The experiment was stopped when tumors in the control group reached ∼500 mm^3, then, the mice were sacrificed, tumors were isolated for weight and lungs were isolated for metastatic foci analysis. Similar experiment was also performed using MMTV-Myc cells. In another set of experiments 4T1 cells stably transfected with Scr-shRNA or PF1-shRNA were inoculated in interscapular space of Balb/c mice (n = 10). […] Tumor-free survival was calculated from Kaplan-Meier curves, and statistical significance was determined using the log-rank test for survival and the t-test for tumor growth. Metastatic dissemination was evaluated by dissecting the lungs from sacrificed mice and inspecting the Bouin-fixed (Sigma) lung surface for lesions using a stereoscope (Nikon SMZ800 stereoscope X3 to X5). […] After 6 days, the number of colonies formed (each originating from a single tumor cell) were counted to evaluate the number of disseminated tumor cells (DTCs). To evaluate DTC proliferation, the number of cells per colony were counted using ImageJ software.

MDA-MB-231 cells [3] = assay: Aldefluor ALDH1 activity in MDA-MB-231; type: cell-based, human; conditions: 1 μM, 72 h; mean of three independent experiments; p = 0.0395
Procedure: (§1) For aldehyde dehydrogenase assay, cells were dissociated with PBS-EDTA and tested for ALDH activity (2 × 10^5 cells/sample), using the Aldefluor assay (Aldegen) according to the manufacturer's instructions. For CD44 and CD24 antigens, cells were dissociated with Accutase, washed with PBS and incubated with PE-conjugated anti-CD24 and APC-conjugated anti-CD44 antibodies (BD Biosciences) for 40 minutes in ice. For quantification of NANOG, OCT4 and SOX2 dissociated cells were fixed with 1% paraformaldehyde (15 min at RT), permeabilized with 0.5% TritonX100 (10 min at RT) and incubated with 1:100 diluted antibodies against NANOG, OCT4 and SOX2 (Cell Signaling) for 1 h at room temperature. The cells were then washed and incubated with fluorophore-conjugated secondary antibodies Abcam). FACS analysis was carried out using a FACScanto flow cytometer, DIVA software program for acquisition (BD Biosciences) and FlowJo (Treestar.) software for analysis.

MDA-MB-231 cells [4] = assay: FACS CD44/CD24 in MDA-MB-231; type: cell-based, human; conditions: 1 μM, 72 h; mean of three independent experiments; p = 0.01
Procedure: as §1

CC[C@H](C)[C@H](NC(=O)[C@H](CC(C)C)NC(=O)[C@H](CC(C)C)NC(=O)[C@H](CCC(=O)O)NC(=O)[C@H](Cc1ccccc1)NC(=O)[C@@H]1CCCN1C(=O)[C@H](CCCNC(=N)N)NC(=O)[C@H](CCCNC(=N)N)NC(=O)[C@H](CC(C)C)NC(=O)[C@H](CCC(N)=O)NC(=O)CNC(=O)CNC(=O)CNC(=O)[C@H](CCC(N)=O)NC(=O)[C@H](CCCNC(=N)N)NC(=O)[C@H](CCCNC(=N)N)NC(=O)[C@H](CCCCN)NC(=O)[C@H](CCCCN)NC(=O)[C@H](CCCNC(=N)N)NC(=O)CNC(=O)[C@@H](N)Cc1ccc(O)cc1)C(=O)N[C@@H](C)C(=O)N[C@@H](C)C(=O)N[C@@H](C)C(=O)N[C@@H](CCSC)C(=O)N[C@@H](CCC(=O)O)C(=O)N[C@@H](CCCNC(=N)N)C(=O)N[C@@H](CC(N)=O)C(=O)N1CCC[C@H]1C(=O)N[C@H](C(=O)N[C@@H](CCC(N)=O)C(=O)O)[C@@H](C)O [PF1-SID] (H-YGRKKRRQGGGQLRRPFELLIAAAMERNPTQ-OH)
IC50 (PAH2 domain of SIN3A): 15.6 µM

CC[C@H](C)[C@H](NC(=O)[C@H](CC(N)=O)NC(=O)[C@H](CCSC)NC(=O)[C@H](CCCNC(=N)N)NC(=O)[C@@H](NC(=O)CNC(=O)CNC(=O)CNC(=O)[C@H](CCC(N)=O)NC(=O)[C@H](CCCNC(=N)N)NC(=O)[C@H](CCCNC(=N)N)NC(=O)[C@H](CCCCN)NC(=O)[C@H](CCCCN)NC(=O)[C@H](CCCNC(=N)N)NC(=O)CNC(=O)[C@@H](N)Cc1ccc(O)cc1)C(C)C)C(=O)N[C@@H](CCC(N)=O)C(=O)N[C@@H](CCSC)C(=O)N[C@@H](CC(C)C)C(=O)N[C@@H](CC(C)C)C(=O)N[C@@H](CCC(=O)O)C(=O)N[C@@H](C)C(=O)N[C@@H](C)C(=O)N[C@@H](CC(=O)O)C(=O)N[C@@H](Cc1ccc(O)cc1)C(=O)N[C@@H](CC(C)C)C(=O)N[C@@H](CCC(=O)O)C(=O)N[C@@H](CCCNC(=N)N)C(=O)N[C@@H](CCCNC(=N)N)C(=O)N[C@@H](CCC(=O)O)C(=O)N[C@@H](CCCNC(=N)N)C(=O)O [Tat-SID] (H-YGRKKRRQGGGVRMNIQMLLEAADYLERRER-OH)
IC50 (PAH2 domain of SIN3A): 1.26 µM

SID peptide: SID peptide expressed from a plasmid vector over a longer time period (previous study) (YGRKKRRQGGGVRMNIQMLLEAADYLERRER)
H3K4me3 at CDH1 and ESR1 promoters [1]: dramatic increases in H3K4^me3

YGRKKRRQGGG-EQRARRIMERLLEYNMVADL [Tat-Scr]
colony morphology (MDA-MB-231 cells [2]): disorganized colonies with invasive projections | number of lung metastasis, median (4T1 cells; 4T1 treated ex vivo with 2.5 μM, n = 5, Tat-SID p = 0.0446 versus Tat-Scr, vehicle 23): 13 | decrease in lung metastasis versus vehicle (4T1 cells; Tat-Scr 2.5 μM, p = 0.2107): not statistically significant | ALDH+ cells, mean (MDA-MB-231 cells [3]): 21.3% | CD44low/CD24low/neg population, mean (MDA-MB-231 cells [4]): 6.7%
